In one experiment the target is JAK1 (Homo sapiens, UniProt P23458). The experiment is described as follows: Human whole blood assay: pSTAT3 (JAK1) in lymphocytes. Format: cell-based. Set-up: endogenous in cells; host or cells: human whole blood, CD4+ lymphocytes. The settings on record: HWB. An excerpt:
Human Whole Blood Assays: Determination of pSTAT3 (JAK1) and pSTAT5 (JAK2) in Lymphocytes and Monocytes
Human whole blood (HWB) assays were developed and validated to determine the JAK1 and JAK2 selectivity of test compounds.
Dilute the test compounds, 10 points, (1:3) in DMSO 100% and a step down in PBS+0.1% BSA. Use tofacitinib as a reference compound in each plate, as well as a maximum signal (stimulated wells) and a minimum signal (no stimulated wells) in order to normalize data. Obtain a pool of HWB from 4 different healthy donors. Plate the blood in a 96 well plate using a Tecan Evo 96w and incubate with test compounds for 1 h at RT. After this time of incubation, stimulate HWB with both IL6 (206-IL, R&D System) and GM-CSF (PHC2015, Life Technologies) for 15 more minutes. […]
The final concentrations in the assay are the following: 100 μM for compounds, 50 μM for tofacitinib, 0.1 μg/mL IL6, 0.038 μg/mL GM-CSF and 1% DMSO. […] Incubate the antibodies for 1 h in dark at RT, then wash cells 2× and read on Cytometer Macsquant (Miltenyi Biotec). Gate the data on CD4+(lymphocytes) and CD4Low CD33Hi (monocytes), to measure the fluorescence from cells expressing pSTAT3 and pSTAT5 respectively. Analyze the data using FlowJo v_10 and the normalize the median of fluorescence versus maximum and minimum signal to determine the IC50s. […]

A further experiment concerns the target JAK2 (Homo sapiens, UniProt O60674). The experiment is described as follows: AlphaScreen SureFire p-STAT5 (p-Tyr694/699)-EPO-JAK2 cell-based assay (UT-7 cells). Set-up: purchased Invitrogen. As to conditions: EPO 45 ng/mL, n=5, read-out: IC50, EPO-stimulated pSTAT5 JAK2 cell-based assay. On the procedure: AlphaScreen SureFire Protocol p-STAT5 (p-Tyr694/699)-EPO-JAK2 Cell-Based Assay
The fold selectivity of test compounds for JAK1 over JAK2 is determined by a cellular assay, in which EPO is used to activate JAK2-STAT5 pathway, and pSTAT5 is used as the readout.
Starve UT-7 cells overnight in DMEM medium with 0.5% […] (FBS) and 1× Pen/Strep at 37° C. (without GM-CSF). Plate 50000 cells per well in BD 96 well black plates with clear bottoms (in medium without FBS and GM-CSF). Maintain the plates at RT for 30-60 minutes before incubating overnight at 37° C. and 5% CO2. Count cells using Vi-Cell counter, use a cell suspension at 500000 cells/mL and plated 100 μL/well in […] Biocoat plates Catalog #354640. […]
Follow the following steps sequentially: make acceptor mix (activation buffer/reaction buffer/acceptor beads); transfer 4 μL lysate from 96 well plates to 384 well-Proxiplate; add 5 μL acceptor mix to 384 proxiplate plate(s) with multidrop combi; seal plates with aluminum seal; shake 1-2 minutes on plate shaker; incubate plate at RT for 2 hr with gentle shaking; make donor mix (donor beads in dilution buffer); add 2 μl donor mix to assay plates with multidrop combi; seal plates with aluminum seal; shake 1-2 minutes on plate shaker; incubate at RT for 2 hr with gentle shaking; read plate with Envision; protocol AlphaScreen Surefire 384.
For orientation: Bead proximity is the source of the signal in Alpha formats.

What is called IC50 is the concentration that inhibits the measured activity by half.

Chain of JAK1 (P23458 whole entry): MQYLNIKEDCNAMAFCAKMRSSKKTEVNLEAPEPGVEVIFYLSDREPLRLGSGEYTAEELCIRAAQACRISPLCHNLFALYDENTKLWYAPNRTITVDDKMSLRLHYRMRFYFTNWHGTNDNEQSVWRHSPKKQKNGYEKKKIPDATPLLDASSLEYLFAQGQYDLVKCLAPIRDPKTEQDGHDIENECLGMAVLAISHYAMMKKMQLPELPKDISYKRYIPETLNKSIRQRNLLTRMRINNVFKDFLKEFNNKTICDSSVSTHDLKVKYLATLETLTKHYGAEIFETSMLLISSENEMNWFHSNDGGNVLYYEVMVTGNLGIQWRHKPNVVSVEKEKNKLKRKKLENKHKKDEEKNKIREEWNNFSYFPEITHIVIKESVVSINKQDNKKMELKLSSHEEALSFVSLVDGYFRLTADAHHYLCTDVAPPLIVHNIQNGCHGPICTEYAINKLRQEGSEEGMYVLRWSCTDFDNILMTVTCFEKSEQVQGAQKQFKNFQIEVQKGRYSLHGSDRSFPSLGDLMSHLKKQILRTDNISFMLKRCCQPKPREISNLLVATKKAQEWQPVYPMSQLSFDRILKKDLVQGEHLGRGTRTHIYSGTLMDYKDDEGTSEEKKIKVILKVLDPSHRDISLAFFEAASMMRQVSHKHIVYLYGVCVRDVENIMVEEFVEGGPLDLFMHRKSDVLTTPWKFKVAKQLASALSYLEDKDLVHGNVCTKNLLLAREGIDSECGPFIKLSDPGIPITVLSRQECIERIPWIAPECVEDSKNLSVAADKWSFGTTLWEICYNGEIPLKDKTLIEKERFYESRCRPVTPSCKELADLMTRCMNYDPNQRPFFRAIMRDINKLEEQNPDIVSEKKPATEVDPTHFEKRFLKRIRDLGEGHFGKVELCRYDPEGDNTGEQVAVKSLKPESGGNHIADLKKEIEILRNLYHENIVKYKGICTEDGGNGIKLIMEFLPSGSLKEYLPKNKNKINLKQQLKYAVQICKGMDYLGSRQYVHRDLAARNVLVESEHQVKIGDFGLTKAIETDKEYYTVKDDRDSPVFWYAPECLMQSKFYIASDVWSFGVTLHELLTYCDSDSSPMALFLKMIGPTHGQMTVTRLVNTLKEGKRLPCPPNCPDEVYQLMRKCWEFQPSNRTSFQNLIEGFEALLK
Chain of JAK2 (O60674 whole entry): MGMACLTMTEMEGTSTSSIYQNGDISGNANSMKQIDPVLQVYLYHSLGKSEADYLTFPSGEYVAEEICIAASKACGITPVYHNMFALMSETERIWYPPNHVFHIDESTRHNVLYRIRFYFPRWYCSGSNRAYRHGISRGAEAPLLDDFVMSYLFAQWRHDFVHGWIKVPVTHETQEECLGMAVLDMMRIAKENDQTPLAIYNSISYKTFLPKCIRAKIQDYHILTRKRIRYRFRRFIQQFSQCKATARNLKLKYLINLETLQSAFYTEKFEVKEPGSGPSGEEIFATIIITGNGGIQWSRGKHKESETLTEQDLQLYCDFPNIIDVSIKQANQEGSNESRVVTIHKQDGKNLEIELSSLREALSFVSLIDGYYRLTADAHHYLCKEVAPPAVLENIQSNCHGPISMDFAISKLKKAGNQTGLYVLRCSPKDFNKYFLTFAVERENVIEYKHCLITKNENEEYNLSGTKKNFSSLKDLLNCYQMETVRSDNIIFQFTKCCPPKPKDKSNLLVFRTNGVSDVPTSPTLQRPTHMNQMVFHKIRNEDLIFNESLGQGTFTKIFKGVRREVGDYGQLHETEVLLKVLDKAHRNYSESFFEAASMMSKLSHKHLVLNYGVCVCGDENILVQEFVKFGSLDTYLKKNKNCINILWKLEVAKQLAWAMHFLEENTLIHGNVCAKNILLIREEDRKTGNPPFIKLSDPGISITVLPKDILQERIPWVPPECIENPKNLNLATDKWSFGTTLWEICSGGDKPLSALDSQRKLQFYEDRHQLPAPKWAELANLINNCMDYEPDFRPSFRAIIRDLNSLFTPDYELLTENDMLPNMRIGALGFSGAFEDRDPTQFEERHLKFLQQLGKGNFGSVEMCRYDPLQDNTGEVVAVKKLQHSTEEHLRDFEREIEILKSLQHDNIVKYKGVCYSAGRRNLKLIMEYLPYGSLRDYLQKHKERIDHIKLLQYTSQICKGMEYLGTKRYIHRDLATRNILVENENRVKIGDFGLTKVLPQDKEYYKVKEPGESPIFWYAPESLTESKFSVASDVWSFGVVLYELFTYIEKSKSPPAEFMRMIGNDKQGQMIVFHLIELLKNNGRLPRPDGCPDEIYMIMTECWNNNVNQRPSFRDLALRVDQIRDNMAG

On to `Cc1cc(Nc2cc(O[C@H]3CC[C@@H](NC[C@@H](O)C(F)(F)F)CC3)cc3c2ncn3C)nn1C` [Example 1, (2R)-3-{[cis-4-({4-[(1,5-Dimethyl-1H-pyrazol-3-yl)amino]-1-methyl-1H-benzimidazol-6-yl}oxy)cyclohexyl]amino}-1,1,1-trifluoropropan-2-ol], for which the IC50 against JAK1 (IL6 stimulated, CD4+ lymphocytes, n=3) was 2.4 ± 0.64 µM; at JAK2, 11.8 µM. Also, on JAK1 (JAK1 over JAK2), the “potency for JAK1 over JAK2 in a human whole blood assay” value is recorded as “approximately 5 ×”.

(Values after US9556153B1, “JAK1 inhibitors” (Eli Lilly and Company, priority 2015, dated 2017).)
